Values belong to the compound of their own block, whether it stands above or below them.
What was measured:
[1] = Stability of 4-EPR internal standard solution stored in the refrigerator; format: physicochemical; conditions: six months
Procedure: Assay is by high pressure liquid chromatography using a Waters HPLC System consisting of a Model 6000A solvent delivery system with a Model 440 UV absorbance detector (365 nm filter), and either a Model U6K injector (2 ml sample loop) or a Waters Intelligent Sample Processor (WISP™). […] The column is a 10 cm×4.6 mm (i.d.) Brownlee Labs RP-18 Spheri-5 (5μ) stainless steel column equipped with a 3 cm×4.6 mm (i.d.) Brownlee Labs RP-18 (10μ) stainless steel guard column. The mobile phase is acetonitrile:water:glacial acetic acid (75:23:2, v/v/v) and is prepared in 2 liter quantities. The components of the mobile phase are mixed together, filtered through a 5 μm Millipore® filter apparatus and degassed under vacuum for one-half hour while stirring. The internal standard for the assay is N-(4-ethoxyphenyl)retinamide (4-EPR). […]
The procedure of Example 1 is followed using a 4 -EPR internal standard containing 100 μg/ml which is prepared by weighing 10.0 mg of 4-EPR into a 100 ml volumetric flask and bringing to volume with methanol. A 1/2000 dilution of this stock solution is made by transferring 0.1 ml of 100 μg/ml 4-EPR solution into a 200 ml volumetric flask and bringing to volume with methanol. The resulting solution contains 50 ng/ml of 4-EPR. […] For the assay, a 1.0 ml aliquot of plasma is transferred to a 15 ml screw-cap conical bottomed glass centrifuge tube. […]

[2] = Bioavailability of HPR in vivo (general statements); conditions: small particle size of the HPR
mammary cancer = conditions: rats, induced with N-nitroso-N-methyl urea; cited from earlier work
[3] = one formulation of HPR, 5 mg/kg, rats, cited from earlier work
rats = conditions: oral; cited from earlier work
[4] = cited from earlier work
[5] = cited from earlier work; remark: listed apart in the source

- Stability of 4-EPR solution ([1]; 50 ng/ml in methanol): without signs of decomposition
- Stability of 4-EPR solution ([1]; 500 ng/ml in acetonitrile): without signs of decomposition
SMILES: CCOc1ccc(NC(=O)C=C(C)C=CC=C(C)C=CC2=C(C)CCCC2(C)C)cc1 [Formulation 4-EPR, N-(4-ethoxyphenyl)retinamide]

SMILES: CC1=C(/C=C/C(C)=C/C=C/C(C)=C/C(=O)Nc2ccc(O)cc2)C(C)(C)CCC1 [HPR, N-(4-Hydroxyphenyl)-all-trans-retinamide]
- Effect of small particle size on bioavailability [2]: tends to aid bioavailability
- Protection against mammary cancer (mammary cancer): protects against mammary cancer in rats
- Half-life of elimination ([3]; oral): 12 h
- Oral absorption ([3]; oral): incompletely absorbed after oral administration
- Elimination [3]: eliminated slowly
- Toxicity relative to retinyl acetate and retinoic acid (rats): less toxic when given orally to rats then retinyl acetate and retinoic acid
- Solubility in water [4]: virtually insoluble in water

SMILES: CC1=C(/C=C/C(C)=C/C=C/C(C)=C\C(=O)O)C(C)(C)CCC1 [isotretinoin]
- Effect of food intake on bioavailability [5]: affected by food intake

Reference: US4665098A, “Pharmaceutical composition of N-(4-hydroxyphenyl) retinamide having increased bioavailability” (McNeilab, Inc., priority 1985, dated 1987)
